Results: the supplement of paper PMC10883282

How the values were obtained:
Test in all cases: relative viability vs DMSO control (72 h) (fraction); higher = more viable cells
KHOS-NP = tested on: KHOS-NP
Procedure, shortened: (§1)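 Sarcoma cell lines in 384-well plates, seeded to reach 80–90% confluence, were given compound after 24 h and kept 72 h at 37 °C, 5% CO2, with 0.1% DMSO vehicle and a 5 µM positive control. Relative viability came from ATPLite as percent growth, averaged over up to triplicate wells. On the rescaled values, 1 equals full and 0 equals none.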

MES-SA = tested on: MES-SA
Procedure, shortened: as §1

SW872 = tested on: SW872
Procedure, shortened: as §1

A204 = tested on: A204
Procedure, shortened: as §1

SW684 = tested on: SW684
Procedure, shortened: as §1

SK-ES-1 = tested on: SK-ES-1
Procedure, shortened: as §1

RD = tested on: RD
Procedure, shortened: as §1

VA-ES-BJ = tested on: VA-ES-BJ
Procedure, shortened: as §1

SYO-1 = tested on: SYO-1
Procedure, shortened: as §1

HS729 = tested on: HS729
Procedure, shortened: as §1

SK-LMS-1 = tested on: SK-LMS-1
Procedure, shortened: as §1

G401 = tested on: G401
Procedure, shortened: as §1

C[C@@H](Oc1cc(-c2cnn(C3CCNCC3)c2)cnc1N)c1c(Cl)ccc(F)c1Cl [Crizotinib]
Conditions | relative viability
A204, 0.00017 µM | 1.07
A204, 0.00051 µM | 1.05
A204, 0.00152 µM | 1.08
A204, 0.00457 µM | 1.08
A204, 0.01372 µM | 1.1
A204, 0.04115 µM | 1.09
A204, 0.1235 µM | 1.08
A204, 0.3704 µM | 0.963
A204, 1.111 µM | 0.823
A204, 3.333 µM | 0.577
A204, 10 µM | 0.0123
G401, 0.00017 µM | 1.01
G401, 0.00051 µM | 0.995
G401, 0.00152 µM | 1.01
G401, 0.00457 µM | 1.01
G401, 0.01372 µM | 1.01
G401, 0.04115 µM | 1.01
G401, 0.1235 µM | 0.9894
G401, 0.3704 µM | 0.915
G401, 1.111 µM | 0.745
G401, 3.333 µM | 0.417
G401, 10 µM | 0.000367
HS729, 0.00017 µM | 0.998
HS729, 0.00051 µM | 1.01
HS729, 0.00152 µM | 0.9714
HS729, 0.00457 µM | 0.98
HS729, 0.01372 µM | 0.9284
HS729, 0.04115 µM | 0.947
HS729, 0.1235 µM | 0.922
HS729, 0.3704 µM | 0.872
HS729, 1.111 µM | 0.744
HS729, 3.333 µM | 0.58
HS729, 10 µM | 0.0222
KHOS-NP, 0.00017 µM | 1.11
KHOS-NP, 0.00051 µM | 1.107
KHOS-NP, 0.00152 µM | 1.09
KHOS-NP, 0.00457 µM | 1.11
KHOS-NP, 0.01372 µM | 1.1
KHOS-NP, 0.04115 µM | 1.1
KHOS-NP, 0.1235 µM | 1.103
KHOS-NP, 0.3704 µM | 1.103
KHOS-NP, 1.111 µM | 1.08
KHOS-NP, 3.333 µM | 0.974
KHOS-NP, 10 µM | 0.0806
MES-SA, 0.00017 µM | 0.943
MES-SA, 0.00051 µM | 0.935
MES-SA, 0.00152 µM | 0.943
MES-SA, 0.00457 µM | 0.944
MES-SA, 0.01372 µM | 0.946
MES-SA, 0.04115 µM | 0.969
MES-SA, 0.1235 µM | 0.938
MES-SA, 0.3704 µM | 0.536
MES-SA, 1.111 µM | 0.434
MES-SA, 3.333 µM | 0.27
MES-SA, 10 µM | -0.000833
RD, 0.00017 µM | 1.08
RD, 0.00051 µM | 1.07
RD, 0.00152 µM | 1.106
RD, 0.00457 µM | 1.09
RD, 0.01372 µM | 1.1
RD, 0.04115 µM | 1.1
RD, 0.1235 µM | 1.09
RD, 0.3704 µM | 0.88
RD, 1.111 µM | 0.626
RD, 3.333 µM | 0.441
RD, 10 µM | 0.00437
SK-ES-1, 0.00017 µM | 1.03
SK-ES-1, 0.00051 µM | 1.01
SK-ES-1, 0.00152 µM | 1.05
SK-ES-1, 0.00457 µM | 1.052
SK-ES-1, 0.01372 µM | 1.06
SK-ES-1, 0.04115 µM | 1.03
SK-ES-1, 0.1235 µM | 0.979
SK-ES-1, 0.3704 µM | 0.673
SK-ES-1, 1.111 µM | 0.0655
SK-ES-1, 3.333 µM | 0.0452
SK-ES-1, 10 µM | 0.00363
SK-LMS-1, 0.00017 µM | 1.03
SK-LMS-1, 0.00051 µM | 1.02
SK-LMS-1, 0.00152 µM | 1.01
SK-LMS-1, 0.00457 µM | 1.01
SK-LMS-1, 0.01372 µM | 0.996
SK-LMS-1, 0.04115 µM | 0.921
SK-LMS-1, 0.1235 µM | 0.641
SK-LMS-1, 0.3704 µM | 0.571
SK-LMS-1, 1.111 µM | 0.525
SK-LMS-1, 3.333 µM | 0.335
SK-LMS-1, 10 µM | 0.0176
SW684, 0.00017 µM | 1.16
SW684, 0.00051 µM | 1.19
SW684, 0.00152 µM | 1.17
SW684, 0.00457 µM | 1.23
SW684, 0.01372 µM | 1.21
SW684, 0.04115 µM | 1.22
SW684, 0.1235 µM | 1.17
SW684, 0.3704 µM | 1.09
SW684, 1.111 µM | 0.976
SW684, 3.333 µM | 0.737
SW684, 10 µM | 0.0253
SW872, 0.00017 µM | 1.06
SW872, 0.00051 µM | 1.07
SW872, 0.00152 µM | 1.09
SW872, 0.00457 µM | 1.06
SW872, 0.01372 µM | 1.08
SW872, 0.04115 µM | 1.09
SW872, 0.1235 µM | 1.014
SW872, 0.3704 µM | 0.921
SW872, 1.111 µM | 0.644
SW872, 3.333 µM | 0.463
SW872, 10 µM | -0.00847
SYO-1, 0.00017 µM | 0.957
SYO-1, 0.00051 µM | 0.982
SYO-1, 0.00152 µM | 1
SYO-1, 0.00457 µM | 0.99
SYO-1, 0.01372 µM | 0.973
SYO-1, 0.04115 µM | 0.944
SYO-1, 0.1235 µM | 0.855
SYO-1, 0.3704 µM | 0.655
SYO-1, 1.111 µM | 0.346
SYO-1, 3.333 µM | 0.13
SYO-1, 10 µM | -0.00763
VA-ES-BJ, 0.00017 µM | 1.06
VA-ES-BJ, 0.00051 µM | 1.05
VA-ES-BJ, 0.00152 µM | 1.06
VA-ES-BJ, 0.00457 µM | 1.06
VA-ES-BJ, 0.01372 µM | 1.04
VA-ES-BJ, 0.04115 µM | 0.975
VA-ES-BJ, 0.1235 µM | 0.899
VA-ES-BJ, 0.3704 µM | 0.764
VA-ES-BJ, 1.111 µM | 0.641
VA-ES-BJ, 3.333 µM | 0.505
VA-ES-BJ, 10 µM | 0.00337
